We go through 21 compounds from article PMC12750277, “Combining Experimental Assays and Molecular Modeling to Evaluate Monosubstituted Cinnamic Acid Derivatives as PDE4B Inhibitors” (ACS Omega, 2025).

Several values for one entry are separate records, joined by “and”; a condition that tells them apart may be missing. Equal entries are not always repeated. Where two headings read alike, the source gives them in different places.

The test system of test [1] is tumor necrosis factor-α (TNF-α) in bronchoalveolar lavage fluid. To be noted: oral administration, experimental COPD mice; cited from earlier work.
Another test concerns the target PDE4B (Homo sapiens, UniProt Q07343). As to the kind of experiment: Human PDE4 enzyme inhibition assay ([3H]-cAMP), PDE4B. It counts as biochemical. The procedure: (§1) A standard procedure for PDE testing was carried out according to the previously mentioned protocol. , The enzyme was prepared from U937 cells which were derived from human monocytes, and was stored at −20 °C after preparation. Measurement of PDE4 activity was performed using this stored enzyme after it was diluted with distilled water containing bovine serum albumin. The substrate solution was prepared by adding [3H]-cAMP (300,000 dpm (5000 Bq)/ assay) and […] solution to 100 mmol/L Tris-HCl (pH 8.0) containing 5 mmol/L ethylene glycol-bis (β-aminoethyl ether) and O,O′-bis(2-aminoethyl)-ethylene glycol-N,N,N′,N′-tetraacetic acid. The substrate solution was mixed with the enzyme solution containing a test compound dissolved in DMSO, and incubation was done for 30 min at 30 °C.

The test system of the next test is LPS induced TNF-α. As to the kind of experiment: LPS induced sepsis for measurement of TNF-α inhibition in mice. It counts as in vivo. To be noted: Swiss Albino mice (n = 6), 10 mg/kg po, serum 90 min after LPS. How it is done:
The sepsis model in mice was induced using lipopolysaccharide (LPS) according to the methods described in the literature. Female Swiss albino mice were selected according to the body weights, which were equivalent within each group. The mice were fasted for 20 h with free access to water and dosed for oral administration (po) with the test compounds suspended in vehicle containing 0.5% Tween 80 in 0.25% sodium salt of carboxymethylcellulose. The control mice received the vehicle alone. After 30 min of oral dosing, the mice were injected intraperitoneally with 500 μg of lipopolysaccharide (Escherichia coli, LPS: B4 from Sigma) in phosphate buffer. Then the mice were bled via retro-orbital sinus puncture after 90 min of LPS administration. Serum samples were collected by centrifuging the blood samples at 4000 rpm for 20 min, which were stored overnight at 4 °C. The serum samples were then immediately checked for TNF-α levels using commercial mouse TNF-α ELISA kit (Amersham Biosciences) and assay was carried out following the manufacturer’s instruction.
In vivo experiments were conducted using an LPS-induced sepsis model to measure TNF-α inhibition in female Swiss Albino mice and to assess neutrophilia inhibition for asthma and COPD in male Sprague–Dawley rats. Details such as the oral dosages and the number of animals used, along with the percentage inhibition of neutrophilia calculated from the DLC, are provided in Table . […] These findings are particularly relevant in the context of COPD pathophysiology, where both TNF-α-driven inflammation and neutrophilic influx are well-established key drivers of tissue damage and disease progression.

The target of the next test is PDE4D (Homo sapiens, UniProt Q08499). Briefly: Human PDE4 enzyme inhibition assay ([3H]-cAMP), PDE4D. It counts as biochemical. How it is done:
as §1

Test [2] deals with TNF-α release in human blood mononuclear cells. As to the kind of experiment: LPS-stimulated TNF-α release in PBMCs (TR-FRET). It counts as cell-based. To be noted: PBMC, LPS stimulation 18 h, read-out: TNFα IC50. How it is done:
The blood was mixed with saline at a ratio of 1:1, and the peripheral blood mononuclear cells (PBMCs) were isolated from buffy coats using Lymphoprep tubes. The PBMCs were suspended in RPMI 1640 with 0.5% human serum albumin, pen/strep, and 2 mM L-glutamine at 5 × 10^5 cells/mL. The cells were preincubated with the test compounds in 96-well plates for 30 min and stimulated for 18 h with […] lipopolysaccharide. TNF-α concentration in the supernatants was measured by homogeneous time-resolved fluorescence resonance (TR-FRET). The assay was quantified by measuring fluorescence at 665 nm (proportional to TNF-α concentration) and 620 nm (control). Results are expressed as IC50 values (μM).
The inhibitory effect of the 19 compounds on the release of HM-TNF-α correlated well with their potency in inhibiting PDE4. […] The well-established correlation between PDE4 inhibition and TNF-α suppression is mechanistically explained by the following pathway: By inhibiting PDE4, these compounds elevate intracellular cAMP levels, which in turn activates protein kinase A (PKA). PKA phosphorylates and inhibits key transcription factors like NF-κB, leading to the downregulation of pro-inflammatory cytokines such as TNF-α. This mechanism provides a solid foundation for understanding the anti-inflammatory effects observed in our study.
(TR-FRET usually uses a lanthanide donor and a delayed reading to cut background.)

Test [3] concerns LPS induced neutrophilia (neutrophil influx in BALF). Briefly: LPS induced neutrophilia model for asthma and COPD. In kind it is in vivo. To be noted: Sprague–Dawley rats (n = 6), 10 mg/kg po, BAL 6 h after LPS. How it is done:
Neutrophilia was induced in Sprague–Dawley rats by lipopolysaccharide (LPS) following the established protocol. Male Sprague–Dawley rats were acclimatized to laboratory conditions for 1 week prior to the experiment. According to the body weight, the rats were distributed to various groups randomly. Except for the normal group, all the rats were exposed to 100 μg/mL lipopolysaccharide (E. coli, LPS: B4 from Sigma) for 40 min. The rats were dosed with the test compound suspended in the vehicle containing 0.25% carboxymethyl cellulose before half an hour of LPS exposure. Bronchoalveolar lavage (BAL) was performed 6 h after LPS exposure, total cell count and differential leukocyte count (DLC) were performed and compared with control and the standard drug.
In vivo experiments were conducted using an LPS-induced sepsis model to measure TNF-α inhibition in female Swiss Albino mice and to assess neutrophilia inhibition for asthma and COPD in male Sprague–Dawley rats.

The mark [4] stands for this setting: enzyme prepared from U937 cells, average of at least three assays, read-out: PDE4B IC50.
Setting [5] is: log(1/IC50), IC50 in μM, read-out: PDE4B pIC50 (Experimental) (converted).
The mark [6] stands for this setting: enzyme prepared from U937 cells, average of at least three assays, read-out: PDE4D IC50.
The mark [7] stands for this setting: PDE4B, as listed in Table S4 (rounded), read-out: IC50.
Where [8] appears, read: PDE4B IC50, enzyme prepared from U937 cells, average of at least three assays.
[9] abbreviates: PDE4B pIC50 (Experimental), log(1/IC50), IC50 in μM.

Chain of PDE4D (Q08499 386-715 limits assumed): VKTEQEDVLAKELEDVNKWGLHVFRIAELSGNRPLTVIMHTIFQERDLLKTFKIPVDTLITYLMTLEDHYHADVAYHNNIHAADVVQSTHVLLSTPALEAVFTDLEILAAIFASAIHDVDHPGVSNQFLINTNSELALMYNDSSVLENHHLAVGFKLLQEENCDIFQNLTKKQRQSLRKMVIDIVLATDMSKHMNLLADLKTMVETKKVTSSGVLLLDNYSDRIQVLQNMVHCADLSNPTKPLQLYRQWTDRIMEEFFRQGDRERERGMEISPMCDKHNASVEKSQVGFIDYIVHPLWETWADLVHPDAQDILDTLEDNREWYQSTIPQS
Chain of PDE4B (Q07343 249-736 limits assumed): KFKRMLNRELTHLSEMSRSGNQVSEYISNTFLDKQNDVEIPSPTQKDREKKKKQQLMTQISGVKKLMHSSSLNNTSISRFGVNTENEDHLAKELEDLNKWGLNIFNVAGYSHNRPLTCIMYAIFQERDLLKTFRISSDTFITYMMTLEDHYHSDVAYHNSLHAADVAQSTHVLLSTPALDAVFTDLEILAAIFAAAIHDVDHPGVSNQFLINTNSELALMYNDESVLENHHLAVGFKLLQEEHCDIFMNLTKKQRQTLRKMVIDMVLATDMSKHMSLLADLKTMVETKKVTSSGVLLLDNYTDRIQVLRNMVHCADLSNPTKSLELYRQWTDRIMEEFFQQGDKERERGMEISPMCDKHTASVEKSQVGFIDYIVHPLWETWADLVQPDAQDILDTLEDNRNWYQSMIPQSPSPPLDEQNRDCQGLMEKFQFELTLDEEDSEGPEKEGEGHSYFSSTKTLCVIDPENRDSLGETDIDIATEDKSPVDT

In the case of `O=C(O)C=Cc1cc(O)c(O)c(O)c1` [THCA, 3,4,5-Trihydroxycinnamic acid], in test [1], the “TNF-α in bronchoalveolar lavage fluid” value is “significantly inhibited”.

`COc1ccc(/C=C/C(=O)O)cc1` [Compound 7, trans-4-methoxycinnamic acid]: the “selectivity for PDE4B over PDE4D” value on PDE4B (compared with rolipram) is “higher selectivity ratios for PDE4B over PDE4D than rolipram”. For the same compound, the IC50 is 8.2 ± 1.2 µM on PDE4B (setting [4]), 8.13 µM on PDE4B (setting [5]), 45.6 ± 1.8 µM at PDE4D (setting [6]) and 30.8 ± 1.6 µM in test [2]. For the same compound, in the test with LPS induced TNF-α, the “TNF-α inhibition (%)” value was 29.6% and 29.6 ± 0.36%. Further, the “LPS induced neutrophilia (% inhibition)” value in test [3] was 24.2% and 24.2 ± 0.52%.

On to `O=Cc1ccc(/C=C/C(=O)O)cc1` [Compound 15, trans-4-formylcinnamic acid], for which the IC50 was 101 µM on PDE4B (setting [7]), 101 ± 5.4 µM on PDE4B (setting [4]), 100 µM on PDE4B (setting [5]) and 98.5 ± 2.8 µM in test [2].

On to `O=C(O)/C=C/c1ccc(Cl)cc1` [Compound 13, trans-4-chlorocinnamic acid], for which the IC50 on PDE4B (setting [7]) is 44 µM; at PDE4B (setting [4]), 44.5 ± 2.2 µM; on PDE4B (setting [5]), 43.7 µM; on PDE4D (setting [6]), 57.3 ± 2.4 µM; in test [2], 89.7 ± 3.2 µM.

As to `O=C(O)/C=C/c1ccc(Br)cc1` [Compound 17, trans-4-bromocinnamic acid], the IC50 on PDE4B (setting [7]) is 87 µM; at PDE4B (setting [4]), 87.2 ± 3.5 µM; at PDE4B (setting [5]), 87.1 µM; in test [2], 125 ± 5.5 µM.

Consider `Cc1ccccc1/C=C/C(=O)O` [Compound 8, trans-2-methylcinnamic acid], for which the IC50 is 136 µM on PDE4B (setting [7]), 137 ± 5.8 µM on PDE4B (setting [4]), 135 µM at PDE4B (setting [5]) and 169 ± 5.1 µM in test [2].

With `O=C(O)/C=C/c1ccc(C(F)(F)F)cc1` [Compound 19, trans-4-trifluoromethylcinnamic acid], the IC50 is 97 µM on PDE4B (setting [7]), 97.2 ± 4.3 µM on PDE4B (setting [4]), 97.7 µM on PDE4B (setting [5]) and 118 ± 5.1 µM in test [2].

Take `O=C(O)/C=C/c1ccc(O)cc1` [Compound 4, p-coumaric acid]: the IC50 at PDE4B (setting [8]) was 2.2 ± 0.8 µM; against PDE4B (setting [9]), 2.19 µM; on PDE4D, 2.3 ± 0.7 µM; in test [2], 21.5 ± 1.3 µM. In addition, the “TNF-α inhibition (%)” value with LPS induced TNF-α was 41.1% and 41.1 ± 0.65%. For the same compound, in test [3], the “LPS induced neutrophilia (% inhibition)” value was 32.5% and 32.5 ± 0.33%.

Turning to `O=C(O)/C=C/c1ccccc1` [Compound 1, trans-cinnamic acid], the IC50 against PDE4B (setting [8]) is 90.3 ± 3.8 µM; at PDE4B (setting [9]), 91.2 µM; in test [2] it was 198 ± 8.2 µM.

Consider `COc1ccc(C2CNC(=O)C2)cc1OC1CCCC1` (stereo not shown) [Rolipram, reference compound], for which the “TNF-α inhibition (%)” value in the test on LPS induced TNF-α is 41.7% and 41.7 ± 0.78%. The IC50 in test [2] was 18.5 ± 1 µM. Moreover, in test [3], the “LPS induced neutrophilia (% inhibition)” value is 32.8% and 32.8 ± 0.40%.

As for `COc1cccc(/C=C/C(=O)O)c1` [Compound 6, trans-3-methoxycinnamic acid], the IC50 at PDE4B (setting [4]) is 32.8 ± 1.1 µM; on PDE4B (setting [5]) it was 33.1 µM; on PDE4D (setting [6]), 65.6 ± 1.8 µM; in test [2], 58.3 ± 2 µM.

With `Cc1cccc(/C=C/C(=O)O)c1` [Compound 9, trans-3-methylcinnamic acid], the IC50 was 102 µM on PDE4B (setting [7]), 102 ± 4.1 µM on PDE4B (setting [4]), 102 µM on PDE4B (setting [5]) and 121 ± 5.7 µM in test [2].

With `O=C(O)/C=C/c1ccccc1Cl` [Compound 11, trans-2-chlorocinnamic acid], the IC50 is 82 µM on PDE4B (setting [7]); 82.1 ± 3.9 µM on PDE4B (setting [4]); 81.3 µM at PDE4B (setting [5]); 89.6 ± 3.7 µM at PDE4D (setting [6]); 128 ± 5.8 µM in test [2].

For the compound `COc1ccccc1/C=C/C(=O)O` [Compound 5, trans-2-methoxycinnamic acid], the IC50 on PDE4B (setting [4]) was 51.1 ± 1.9 µM; on PDE4B (setting [5]) it was 51.3 µM; at PDE4D (setting [6]), 91.4 ± 2.9 µM; in test [2] it was 64.2 ± 3.1 µM.

`O=C(O)/C=C/c1ccccc1O` [Compound 2, ortho-coumaric acid]: the IC50 at PDE4B (setting [4]) is 41.4 ± 1.3 µM; at PDE4B (setting [5]) it was 41.7 µM; at PDE4D (setting [6]) it was 39.6 ± 1.7 µM; in test [2], 40.4 ± 0.8 µM.

As for `O=C(O)/C=C/c1cccc(O)c1` [Compound 3, meta-coumaric acid], the IC50 is 28.4 ± 1.4 µM at PDE4B (setting [4]), 28.2 µM on PDE4B (setting [5]), 32.7 ± 2.1 µM at PDE4D (setting [6]) and 37.8 ± 1.9 µM in test [2].

On to `O=C(O)/C=C/c1ccc([N+](=O)[O-])cc1` [Compound 14, trans-4-nitrocinnamic acid], for which the IC50 on PDE4B (setting [7]) was 111 µM; on PDE4B (setting [4]) it was 112 ± 6.4 µM; on PDE4B (setting [5]), 112 µM; in test [2] it was 96.5 ± 3 µM.

On to `O=C(O)/C=C/c1cccc(Cl)c1` [Compound 12, trans-3-chlorocinnamic acid], for which the IC50 at PDE4B (setting [7]) is 63 µM; on PDE4B (setting [4]), 63.2 ± 3.4 µM; on PDE4B (setting [5]), 63.1 µM; at PDE4D (setting [6]), 62.7 ± 2.8 µM; in test [2] it was 119 ± 4.8 µM.

For `Cc1ccc(/C=C/C(=O)O)cc1` [Compound 10, trans-4-methylcinnamic acid], the IC50 on PDE4B (setting [7]) was 85 µM; on PDE4B (setting [4]), 85.3 ± 3.8 µM; at PDE4B (setting [5]), 85.1 µM; in test [2] it was 99.2 ± 4.1 µM.

Regarding `O=C(O)/C=C/c1ccc(F)cc1` [Compound 16, trans-4-fluorocinnamic acid], the IC50 at PDE4B (setting [7]) is 33 µM; at PDE4B (setting [4]), 33.4 ± 1.5 µM; on PDE4B (setting [5]), 33.1 µM; at PDE4D (setting [6]) it was 36.6 ± 2.1 µM; in test [2] it was 65.2 ± 3.1 µM.

For the compound `CN(C)c1ccc(/C=C/C(=O)O)cc1` [Compound 18, trans-4-dimethylaminocinnamic acid], the IC50 at PDE4B (setting [7]) was 33 µM; at PDE4B (setting [5]) it was 33.1 µM; at PDE4D (setting [6]), 19.6 ± 1.1 µM; in test [2], 65.2 ± 3.1 µM.
